From ChEMBL document CHEMBL1201862, “PubChem BioAssay data set” (2004) come the findings set out here.

Some test systems named below: SF-295; UACC-62; 786-0; Malme-3M; HCT-15; NCI-H460; UO-31; U-251; SNB-19; LOX IMVI; A549; SNB-75; NCI-H226; NCI-H23; A498; HCC 2998; RXF 393.
Assay in all cases: growth of human tumour cells (NCI), 48 h

Each structure is given as a SMILES string.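 Where inhibition never reached the appropriate level, the endpoint shown equals the highest concentration tested. Otherwise, values were interpolated linearly from a five-concentration, 48-hour dose response in 96-well plates. GI50 = concentration required for 50% inhibition of growth.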 The source made the active and inactive calls. Cut-off read from the data, not from the text of the source: active = GI50 up to about 1.1 µM and inactive = higher.

On to `O=[N+]([O-])c1nccn1COCCI`, for which the GI50 with SF-295 is > 100 µM (inactive); in the assay with UACC-62 it was > 100 µM (inactive); in the assay on 786-0, > 100 µM (inactive); with Malme-3M, > 100 µM (inactive); in the assay on HCT-15, > 100 µM; with NCI-H460, > 100 µM (inactive). Also, the GI50 with UO-31, with U-251, in the assay on SNB-19, in the assay with LOX IMVI, in the assay with A549 and with SNB-75 was > 100 µM (inactive) throughout. For the same compound, the GI50 in the assay with NCI-H226 and in the assay with NCI-H23 was > 100 µM (inactive) throughout.
Consider `NS(=O)(=O)c1ccc(NC(=O)c2cccc3c(=O)c4ccccc4[nH]c23)cc1`, for which the GI50 was > 100 µM (inactive) in the assay on SF-295; 41.8 µM (inactive) in the assay on UACC-62; > 100 µM (inactive) with 786-0; 24.7 µM (inactive) in the assay on Malme-3M; > 100 µM in the assay with HCT-15; > 100 µM (inactive) in the assay on NCI-H460. For the same compound, the GI50 is 18.6 µM (inactive) in the assay on UO-31; 48.4 µM (inactive) with U-251; 76.4 µM (inactive) in the assay on SNB-19; 20.7 µM (inactive) in the assay with LOX IMVI; 51.3 µM (inactive) with A498; > 100 µM (inactive) in the assay on A549. In addition, the GI50 with SNB-75 was 15.3 µM (inactive); with HCC 2998 it was > 100 µM (inactive); in the assay on NCI-H226, 23.4 µM (inactive); in the assay with NCI-H23, 67.3 µM (inactive).
`COc1cccc(N2C(=O)[C@H]3[C@H]4CC(C(C)(C)C)CC[C@H]4c4c([nH]c5ccccc45)[C@H]3C2=O)c1` (stereo not given in full): the GI50 in the assay with SF-295 is 15.1 µM (inactive); in the assay on UACC-62, 14.6 µM (inactive); in the assay on 786-0, 16.6 µM (inactive); in the assay with Malme-3M it was 20.6 µM (inactive); with HCT-15, 34.6 µM; in the assay on UO-31 it was 17.6 µM (inactive). For the same compound, the GI50 was 18.9 µM (inactive) in the assay with SNB-19; 16.5 µM (inactive) with LOX IMVI; 21.1 µM (inactive) in the assay on RXF 393; 15.3 µM (inactive) in the assay with A549; 15.3 µM (inactive) in the assay on SNB-75; 28.4 µM (inactive) with HCC 2998. Further, the GI50 in the assay with NCI-H226 was 22.1 µM (inactive); with NCI-H23 it was 19.2 µM (inactive).
Turning to `CC(C)N(C(=O)C12C3C4C5C3C1(C(=O)O)C5C42)C(C)C` (stereo not given), the GI50 in the assay on SF-295 is > 100 µM (inactive); in the assay with UACC-62, > 100 µM (inactive); in the assay with 786-0, > 100 µM (inactive); with Malme-3M, > 100 µM (inactive); with HCT-15, > 100 µM; with NCI-H460, > 100 µM (inactive). Moreover, the GI50 in the assay with UO-31, in the assay on U-251, in the assay with SNB-19, in the assay with LOX IMVI, with A498 and with A549 was > 100 µM (inactive) each time. Also, the GI50 is 61.2 µM (inactive) in the assay with SNB-75, > 100 µM (inactive) in the assay with HCC 2998 and > 100 µM (inactive) in the assay on NCI-H23.
In the case of `O=C(O/N=C1/CCCC/C1=C\c1ccccc1)c1ccc(Cl)cc1`, the GI50 was 47.4 µM (inactive) in the assay with SF-295; > 100 µM (inactive) with UACC-62; > 100 µM (inactive) with 786-0; > 100 µM (inactive) in the assay on Malme-3M; > 100 µM in the assay with HCT-15; > 100 µM (inactive) with NCI-H460. For the same compound, the GI50 in the assay with UO-31 is > 100 µM (inactive); in the assay on U-251, 89.3 µM (inactive); in the assay on SNB-19 it was > 100 µM (inactive); in the assay on LOX IMVI, 57.8 µM (inactive); with RXF 393, > 100 µM (inactive); in the assay with A549 it was > 100 µM (inactive). Moreover, the GI50 was 88.7 µM (inactive) with SNB-75, 0.0177 µM (active) with HCC 2998, > 100 µM (inactive) in the assay on NCI-H226 and > 100 µM (inactive) in the assay on NCI-H23.
Consider `CC(=O)c1cc2c3c(c1)c1cc4c(cc1c(=O)n3CC2)OCO4`, for which the GI50 is 26.9 µM (inactive) in the assay on SF-295; 17.3 µM (inactive) in the assay with UACC-62; 13.4 µM (inactive) in the assay with 786-0; 23.3 µM (inactive) with Malme-3M; 19.8 µM with HCT-15; 11.2 µM (inactive) in the assay on NCI-H460. The GI50 in the assay on UO-31 is 8.11 µM (inactive); with U-251, 27 µM (inactive); with SNB-19, 28.5 µM (inactive); in the assay with LOX IMVI, 13.9 µM (inactive); with RXF 393, 32.4 µM (inactive); with A549, 40.1 µM (inactive). Also, the GI50 was 34.4 µM (inactive) in the assay on SNB-75, > 100 µM (inactive) with HCC 2998, > 100 µM (inactive) in the assay with NCI-H226 and 75.5 µM (inactive) with NCI-H23.
As to `COc1ccc(CC2NCCc3c2[nH]c2ccccc32)cc1` (stereo not given), the GI50 is 96.6 µM (inactive) with SF-295; > 100 µM (inactive) with UACC-62; > 100 µM (inactive) in the assay on 786-0; 52.4 µM in the assay on HCT-15; 35.6 µM (inactive) with NCI-H460; 41.5 µM (inactive) with UO-31. The GI50 with U-251 is 82 µM (inactive); in the assay on SNB-19, > 100 µM (inactive); with LOX IMVI, 42 µM (inactive); with A498, > 100 µM (inactive); in the assay on A549, > 100 µM (inactive); with SNB-75 it was 39.1 µM (inactive). Further, the GI50 was 23.7 µM (inactive) in the assay on HCC 2998 and > 100 µM (inactive) in the assay on NCI-H226.
For the compound `CCOC(=O)Nc1ccc(S(=O)(=O)I)cc1.CCOC(=O)Nc1ccc(S(=O)(=O)I)cc1.CN(C=O)C1=C(N(C)C=O)C(N(C)C=O)=C(N(C)C=O)C(=O)C1=O`, the GI50 in the assay with SF-295 was > 100 µM (inactive); in the assay with UACC-62, > 100 µM (inactive); in the assay with 786-0, > 100 µM (inactive); in the assay with Malme-3M, > 100 µM (inactive); with HCT-15 it was > 100 µM; in the assay with NCI-H460 it was > 100 µM (inactive). For the same compound, the GI50 in the assay with UO-31, with U-251, with SNB-19, with LOX IMVI, with A498 and in the assay on A549 was > 100 µM (inactive) in each case. Besides, the GI50 with HCC 2998 and in the assay on NCI-H23 was > 100 µM (inactive) in each case.
In the case of `Cc1ccc(Nc2nc3c(s2)C(=O)c2ccccc2C3=O)cc1`, the GI50 in the assay with SF-295 is 1.6 µM (inactive); in the assay on UACC-62 it was 1.87 µM (inactive); in the assay with 786-0, 1.88 µM (inactive); in the assay with Malme-3M, 1.92 µM (inactive); with HCT-15, 1.94 µM; with NCI-H460 it was 1.94 µM (inactive). The GI50 with UO-31 is 2.03 µM (inactive); in the assay with U-251 it was 1.89 µM (inactive); in the assay with SNB-19, 1.79 µM (inactive); with LOX IMVI, 1.58 µM (inactive); in the assay with A498, 16.4 µM (inactive); in the assay on A549, 2.16 µM (inactive). Moreover, the GI50 in the assay with SNB-75 is 2.14 µM (inactive); with HCC 2998, 2.01 µM (inactive); in the assay on NCI-H226, 19.4 µM (inactive); in the assay with NCI-H23, 1.82 µM (inactive).
Regarding `C/C(CN1C(=O)c2ccccc2C1=O)=N\NS(=O)(=O)c1ccc(Cl)cc1`, the GI50 was > 100 µM (inactive) in the assay with SF-295; > 100 µM (inactive) with UACC-62; > 100 µM (inactive) in the assay with 786-0; > 100 µM (inactive) in the assay on Malme-3M; > 100 µM in the assay on HCT-15; > 100 µM (inactive) in the assay on NCI-H460. Also, the GI50 in the assay on UO-31, with U-251, in the assay on SNB-19, with A498, in the assay with A549 and in the assay on SNB-75 was > 100 µM (inactive) each time. Further, the GI50 in the assay with HCC 2998, in the assay on NCI-H226 and in the assay with NCI-H23 was > 100 µM (inactive) in each case.
